Assay results published in patent US12459951B2, “Compounds that interact with RAS superfamily proteins for treatment of cancers, inflammatory diseases, rasopathies, and fibrotic disease” (SHY Therapeutics, LLC, priority 2022, dated 2025).

Legend:
cdc42 = biological target: T1, cdc42 (Homo sapiens, UniProt P60953); experiment: Cdc42 GTP Binding Domain Inhibition Assay; settings: read-out: Cdc42: % inh.
T1 construct: made in house
Description: Protocol for Cdc42 and Rheb GTP Binding Domain Inhibition Assay
The following method was developed as specific assay for cdc42 and Rheb proteins.
• 25 mM Tris-HCl, pH 7.4 • 27 mM KCl • 137 mM NaCl • 1 mM MgCl2 • 1 mM DTT Buffer-II: • 50 mM Tris-HCl, pH 7.0 • 1 mM MgCl2 • 1 mM DTT
The small GTPases proteins cdc42 and Rheb were expressed as His-tagged proteins. For the assay, the cdc42 and Rheb purified small GTPases proteins were diluted in Buffer-I or Buffer-II to a final concentration of 10-30 μg/mL. 200 μL of each diluted protein was added to a nickel-coated 96-well plate and incubated overnight at […]. Then the protein solution was discarded and 200 μL of Buffer-I or Buffer-II was added to each well in the presence of 1% DMSO. Compounds to be tested were added to the protein-coated wells at final concentration of 20 μM, and incubated for 3 hours at room temperature with and without 10-30 μg/mL of Sos added to the final hour of the incubation. When performing IC50 measurements a serial dilution of all tested concentrations was added. Then Cy3-GTP or Cy5-GTP was added to each well to a final concentration of 100 nM. The labeled GTP was incubated for 45 minutes at room temperature. Following GTP incubation, wells were washed 3× in Buffer-I or Buffer-II and 200 μL of Buffer-I or Buffer-II was added to each well. Following washes, the amount of bound labeled-GTP was measured using a SpectraMax M3 (Molecular Devices).

active/cleaved caspase 6 = experiment: Cell-based caspase activation assay (western blot); design: species or system human
Description: Biological Example 4: Puma Expression and Caspases Activation Assay
Protocols for Cell-Based Puma Expression and Caspase Activation Assays
Cell lines: All human tumor-derived cancer cell lines were purchased from American Type Culture Collection. Human tumor-derived cancer cell lines Panc-1 (expressing KRas G12D mutant), MiaPaca-2 (expressing KRas G12C mutant), A549 (expressing KRas G12S mutant), and A375 (expressing wild type KRas) were grown in complete DMEM-High Glucose medium and NCI-H1975 (expressing wild type KRas), MM.1R (expressing wild type KRas) and IM.9 (expressing wild type KRas) were grown in RPMI1640 medium. Human tumor-derived cancer cell line BT-549 (expressing wild type KRas) was grown in RPMI1640 medium with 11.8U insulin. All mediums were supplemented with penicillin (100 U/mL), streptomycin (100 μg/mL), and 10% heat-inactivated FBS at 37° C. in a humidified incubator with 5% CO2.
Method: Cells were plated at 300,000 to 800,000 cells/well density in a 6-well plate in the presence of 10% FBS. The next day small molecules to be tested were added to the cells in the final concentration of 3 μM in the presence of 0.3% DMSO for 48 hours incubation at 37° C. For IC50 value determination, serial dilutions of compounds were added to cells under the same conditions. Following 48 hours of incubation cells were lysed with lysis buffer containing 1% Triton X-100, EDTA, and Halt™ Protease & Phosphatase Inhibitor Cocktail (Thermo Scientific). Protein concentration was assessed by BCA protein assay (Thermo Scientific). Increase expression of PUMA and active/cleaved forms of caspase 3, caspase 6 and caspase 9 were detected by western blot.
Western blot protocol: Equal amounts of protein (15-50 μg) were separated by SDS-PAGE and transferred to nitrocellulose membranes (Invitrogen by Thermo Fisher Scientific). The membrane was stained with Ponceau S Stain (Boston BioProducts) to verify uniform protein loading. Membranes were blocked with 10% milk and expression levels of PUMA was assessed by incubating overnight at 4° C. with the antibody PUMA (D30C10) from Cell Signaling Technology (#12450) and active/cleaved forms of caspase 3, caspase 6 and caspase 9 by incubating overnight at 4° C. with the following antibodies: cleaved caspase-3 (Asp175) (5A1E), cleaved caspase-6 (Asp162) and cleaved caspase-9 (Asp330) (D2D4) (all antibodies from Cell Signaling Technology). Then the membranes were incubated with HRP-conjugated secondary antibody (Jackson Immunoresearch, West Grove, PA). Bands were incubated in Amersham ECL Prime Western Blotting Detection Reagent (GE Healthcare) and visualized using the ChemiDoc MP imaging system (Bio-Rad).

T1 sequence (P60953 whole entry, the tested form may be a part): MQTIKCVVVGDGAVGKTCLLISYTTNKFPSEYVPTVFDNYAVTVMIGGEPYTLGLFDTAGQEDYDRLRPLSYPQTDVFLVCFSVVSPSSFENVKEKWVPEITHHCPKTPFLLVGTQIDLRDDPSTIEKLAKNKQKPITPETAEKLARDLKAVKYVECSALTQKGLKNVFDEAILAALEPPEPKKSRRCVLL

Row | SMILES | inhibition at 20 µM (cdc42) | Caspase 6 activation (active/cleaved caspase 6; A375, after 48 hours) | Caspase 6 activation (active/cleaved caspase 6; A549, after 48 hours) | Caspase 6 activation (active/cleaved caspase 6; BT-549, after 48 hours) | Caspase 6 activation (active/cleaved caspase 6; MiaPaca2, after 48 hours) | other results
1 | COc1cc(Nc2nc(-c3nccn3C)nn3cc(-c4ccn(C(C)C)n4)c(C)c23)ncn1 [Compound 6, 6-(1-Isopropyl-1H-pyrazol-3-yl)-N-(6-methoxypyrimidin-4-yl)-5-methyl-2-(1-methyl-1H-imidazol-2-yl)pyrrolo[2,1-f][1,2,4]triazin-4-amine] | 50 to 75% | yes | yes | yes | yes | Caspase 6 activation (active/cleaved caspase 6; Panc-1, after 48 hours): yes
2 | Cc1c(-c2ccn(C)n2)cn2nc(-c3nccn3C)nc(Nc3cc4n(n3)CCO4)c12 [Compound 124, N-(5-Methyl-2-(1-methyl-1H-imidazol-2-yl)-6-(1-methyl-1H-pyrazol-3-yl)pyrrolo[2,1-f][1,2,4]triazin-4-yl)-2,3-dihydropyrazolo[5,1-b]oxazol-6-amine] |  | yes |  | yes | yes | Caspase 6 activation (active/cleaved caspase 6; HCC1806, after 48 hours): yes; Caspase 6 activation (active/cleaved caspase 6; NCI-H358, after 48 hours): yes
3 | COc1ccnc(Nc2nc(-c3nccn3C)nn3cc(-c4ccn(C)n4)c(C)c23)c1 [Compound 102, N-(4-Methoxypyridin-2-yl)-5-methyl-2-(1-methyl-1H-imidazol-2-yl)-6-(1-methyl-1H-pyrazol-3-yl)pyrrolo[2,1-f][1,2,4]triazin-4-amine] |  | yes | yes |  | yes | Caspase 6 activation (active/cleaved caspase 6; IM.9, after 48 hours): yes; Caspase 6 activation (active/cleaved caspase 6; MM.1R, after 48 hours): yes; Caspase 6 activation (active/cleaved caspase 6; NCI-H1975, after 48 hours): yes
4 | Cc1c(-c2ccn(C(C)C)n2)cn2nc(-c3nccn3C)nc(Nc3nccn3C)c12 [Compound 93, 6-(1-Isopropyl-1H-pyrazol-3-yl)-5-methyl-N,2-bis(1-methyl-1H-imidazol-2-yl)pyrrolo[2,1-f][1,2,4]triazin-4-amine] | 76 to 100% |  |  |  |  | 
5 | COc1ccnc(Nc2nc(-c3nccn3C)nn3cc(-c4ccn(C(F)F)n4)c(C)c23)n1 [Compound 95, 6-(1-(Difluoromethyl)-1H-pyrazol-3-yl)-N-(4-methoxypyrimidin-2-yl)-5-methyl-2-(1-methyl-1H-imidazol-2-yl)pyrrolo[2,1-f][1,2,4]triazin-4-amine] | 50 to 75% |  |  |  |  | 
6 | COc1cc(Nc2nc(-c3nccn3C)nn3cc(-c4ccccn4)c(C)c23)ncn1 [Compound 94, N-(6-Methoxypyrimidin-4-yl)-5-methyl-2-(1-methyl-1H-imidazol-2-yl)-6-(pyridin-2-yl)pyrrolo[2,1-f][1,2,4]triazin-4-amine] | 26 to 49% |  |  |  |  | 
